experiment: gradient 5% acetonitrile 3 min, to 50% in 2 min, to 85% in 15 min, held 3 min, 100 µL/min; conditions: column: Zorbax Extend-C18 2.1 x 50 mm; eluents: water / acetonitrile, 0.1% formic acid
How it was run: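 Pure standards were run in mixtures of ~100 molecules by HPLC coupled to a quadrupole time-of-flight mass spectrometer. The column was a Zorbax Extend-C18 (2.1 × 50 mm, 1.8 μm) at 100 μL/min, with water and acetonitrile each containing 0.1% formic acid, in positive and negative ionization mode. Dead and dwell volumes were 40 μL and 900 μL. Retention time was taken from computationally picked adduct peaks, each manually inspected, with data collected over 3 months.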

Row | Structure (SMILES) | RP-LC retention time [s]
1 | Cc1sc2cc(C(=O)N3CCN(c4ccccc4)CC3)[nH]c2c1CN1CCOCC1 | 710
2 | CCOc1ccc(C(C)NC(=O)c2cn3nc(OCC)ccc3n2)cc1 (configuration not stated) | 935
3 | CCn1cc(S(=O)(=O)Nc2ccc(C)cc2C)c2cccnc21 | 900
4 | Cn1cc(-c2cc3n(n2)CCC(=O)N3CCCC(=O)NCc2ccc3c(c2)OCO3)c2ccccc21 | 795
5 | CN(Cc1ccc(Cl)cc1)Cc1cc(=O)n2ccccc2n1 | 602
6 | COCCOC1CN(C2CCN(C(=O)Nc3ccccc3)CC2)C12CCCCC2 (configuration not stated) | 641
7 | CNC(=O)c1cc2cc(Cl)ccc2[nH]1 | 741
8 | Cc1cc(NCC(=O)NC2CCCCC2)n2nc(-c3cccnc3)nc2n1 | 646
9 | CCn1cc(-c2ccccc2)cc1C(=O)NC1CCCC1 | 1080
10 | Cc1cc(C)cc(NC(=O)N2CCC(n3cnc4ccc(C)cc4c3=O)CC2)c1 | 838
11 | O=C(CCn1cnc2cc(-c3noc(Cc4cccs4)n3)ccc21)N1CCCC1 | 691
12 | CC(C)Oc1ccc(CN2C[C@@H]3C(=O)N(CCCN4CCCC4=O)C(=O)[C@@H]3C2)cc1 | 581
13 | COc1ccc(CNC2=NCCNC23CCN(S(=O)(=O)c2cc(C)ccc2C)CC3)cc1 | 754
14 | CNC(=O)Cc1csc(NC(=O)c2csc(Nc3cccc(C)n3)n2)n1 | 711
15 | O=C(NCc1nc(-c2ccc(N3CCCCCC3)cc2)no1)c1ccco1 | 1020
16 | Cc1cccc(C)c1Nc1c(-c2c(F)cccc2Cl)nc2cnccn12 | 866
17 | CCC(=O)N1CCN(c2nc(C)cc(N3CCCC3)n2)CC1 | 604
18 | CNC(=O)[C@@H]1CN(C(=O)Cc2ccc(Br)cc2)C[C@H]1CO | 604
19 | Fc1cnccc1CN1CCC(N2CC3(CCCCC3)C2c2ccccc2)CC1 (configuration not stated) | 596

Row | Structure (SMILES) | RP-LC retention time [s]
20 | O=C1CC(c2noc(-c3ccccc3F)n2)CN1c1ccc(F)c(Cl)c1 (configuration not stated) | 1050
21 | COCCN1CCn2cc(S(=O)(=O)NCc3ccc(F)cc3Cl)cc2C1=O | 735
22 | O=C(Nc1ccccn1)c1ccc(S(=O)(=O)NC2CCCC2)cc1 | 722
23 | COC(=O)c1ccc(C(=O)OC)c(NS(=O)(=O)CCOc2ccccc2)c1 | 968
24 | Cc1nc(-c2ccc(OC3CCN(C(=O)NC(C)C)C3)cc2)no1 (configuration not stated) | 730
25 | CC(C)Oc1ccc(CN2C(=O)C3(CCOCC3)CC2c2nnnn2C(C)(C)C)cc1 (configuration not stated) | 875
26 | CCN(c1ccccc1)S(=O)(=O)c1ccc2[nH]c(=O)[nH]c2c1 | 655
27 | Cc1nn(-c2ccccc2)c(C)c1S(=O)(=O)N1CCC(C(=O)NC2CC2)CC1 | 744
28 | CCn1c(C2CCN(S(=O)(=O)c3cccc(C)c3)C2)nc2cccnc21 (configuration not stated) | 771
29 | Cc1sc2ncnc(SCc3ccco3)c2c1C | 1150
30 | Cc1ccc(NC(=O)Cn2ccc3sccc3c2=O)cc1F | 785
31 | Cc1ccc(C)c(Sc2cc(N3CCC(C(=O)NCCCOC(C)C)CC3)ncn2)c1 | 823
32 | Cc1cc(C)cc(-n2ccn(Cc3nc(-c4ccc(F)cc4)no3)c(=O)c2=O)c1 | 884
33 | Cc1cc(C)c(S(=O)(=O)N2CCc3nc[nH]c3C2)cc1C | 643
34 | Cc1cc(C(F)(F)F)nn1CC(=O)N1CCc2nn(CC3CC3)c(=O)n2CC1 | 712
35 | COc1ccc(S(=O)(=O)N2CCCC(C(=O)NC(C)(C)C)C2)cc1OC (configuration not stated) | 707
36 | CCOCCCNC(=O)C1CCCN(S(=O)(=O)c2ccc3c(ccn3C)c2)C1 (configuration not stated) | 788
37 | COc1ccc(-c2noc(CN3N=NC4C(=O)N(c5ccc6c(c5)CCC6)C(=O)C43)n2)cc1OC (configuration not stated) | 949

Source: the METLIN SMRT retention time set (Domingo-Almenara et al. 2019)
